Data as given in patent US20260001875A1, “AMINOPYRIMIDINYL DERIVATIVES FOR THE TREATMENT OF PARKINSON'S DISEASE” (UNIVERSITY OF DUNDEE, priority 2022, published 2026).

Legend:
[1] = test system: Rab10 pThr73; assay: Rab10 Thr73 dephosphorylation (immunoblot) in LRRK2^G2019S MEFs; format: cell-based, mouse; details: Mus musculus, read-out: pRab10 inhibited in LRRK2^G2019S MEFs
[2] = test system: Rab10 pThr73; assay: as above; format: cell-based; details: Mus musculus, read-out: pRab10 inhibited in LRRK2^G2019S MEFs
Experimental: (§1) The second-generation PROTACs were tested in parallel with the first generation PROTACs SD75, SD82, and SD100. The compounds were tested at 33 nM or […] concentrations for 4 hours or 24 hours, running two biological replicates per condition and achieving quantifications representative of both replicates. Analysis by quantitative immunoblotting was performed with readouts of the total LRRK2 (antibody recognizes epitope in C-terminus of protein), Rab10 pThr73 (physiological substrate) and LRRK2 pSer935 (biomarker phosphorylation site).
(§2) Primary MEFs were generated as described in a previous study (Wiggin et al., Mol. Cell Biol. 2002 April; 22(8):2871-81.). Briefly, the uterine horn was collected from adult female mice at day E12.5 and transferred to a 10 cm tissue culture dish containing cold PBS. Two forceps were used to tear the yolk sacs to isolate each embryo. Forceps were cleaned thoroughly with 70% ethanol between each embryo isolation. The embryos were culled, and a tissue piece was collected in a PCR tube for genotyping. The red tissue of the embryo, which grows to become the heart and liver, was removed. The remainder of the embryo was minced with a scalpel blade and incubated with 7.5 ml trypsin-EDTA solution for 10 minutes in a 37° C. tissue culture CO2 incubator. The dish was removed from the incubator and checked under a light microscope for single cells. 7.5 ml complete media was added to the trypsinised cells, and the cell suspension was transferred to a 15 ml Falcon tube, centrifuged at 1200 rpm for 5 minutes at room temperature. The trypsin was aspirated, the cell pellet was resuspended in 5 ml fresh complete media, and the cell suspension was plated in a 60 mm tissue culture dish and incubated in a 37° C., 5% CO2 tissue culture incubator. The MEFs at this stage were considered as passage 0 and were passaged and expanded for experimental use once the genotype was confirmed by allelic sequencing and immunoblotting. MEFs were cultured in Dulbecco's modified Eagle medium (DMEM) containing 10% (v/v) fetal bovine serum (FBS), 2 mM L-glutamine, 100 U/ml penicillin, and 100 μg/ml streptomycin supplemented with 1× non-essential amino acids and 1 mM sodium pyruvate.
Culturing and passaging of adherent cell lines were carried out using aseptic technique in CL1 or CL2 (for PBMC isolation) biological safety cabinets. All cells were incubated in a 37° C. incubator with 5% CO2. Cell lines were regularly tested for mycoplasma contamination. For western blot assay, the cells were seeded in 6-well plates. […] The cells were immediately placed on ice and were scraped and collected into 1.5 ml Eppendorf tubes. Cell lysates were incubated on ice for 10 minutes prior to centrifugation at 15,000 g at 4° C. for 15 minutes. The cell pellet was discarded, and supernatant was collected for analysis by quantitative immunoblotting. For long term storage, the supernatant was flash frozen and stored at −80° C. Protein concentrations of cell lysates were determined using the Bradford assay.
Cell lysates containing a quarter of a volume of 4× NuPAGE LDS sample buffer (NP0007) supplemented with 5% β-mercaptoethanol, were heated at 95° C. for 5 minutes. 15 to 20 μg of samples were loaded onto pre-cast 4-12% Bis-Tris midi 20W or 26W gels (Thermofisher Scientific®, Cat #WG1402BOX or WG1403BOX) and resolved at 130 V for 2 hours with NuPAGE MOPS SDS running buffer (Thermofisher Scientific® Cat #NP0001-02). Proteins were electrophoretically transferred onto a 0.45 μm nitrocellulose membrane (GE Healthcare, Amersham Protran® Supported 0.45 mm NC) at 90 V for 90 min on ice in transfer buffer (48 mM Tris base and 39 mM glycine supplemented with 20% methanol). The transferred membrane was blocked with 5% (w/v) skim milk powder dissolved in tris-buffered saline with tween (TBS-T) (50 mM Tris base, 150 mM sodium chloride (NaCl), 0.1% (v/v) Tween-20) at room temperature for 1 hour.

[3] = test system: Rab10 pThr73; assay: Rab10 Thr73 dephosphorylation (immunoblot) in WT MEFs; format: cell-based, mouse; details: Mus musculus, read-out: pRab10 inhibited in WT MEFs
Experimental: as §1, with “Western blot degradation assays for the LRRK2 protacs were performed with WT and PD-associated LRRK2 [G2019S] mouse embryonic fibroblasts (MEFs). The second-generation” for “The second-generation”
as §2
Culturing and passaging of adherent cell lines were carried out using aseptic technique in CL1 or CL2 (for PBMC isolation) biological safety cabinets. All cells were incubated in a 37° C. incubator with 5% CO2. Cell lines were regularly tested for mycoplasma contamination. For western blot assay, the cells were seeded in 6-well plates. After treating with testing compounds at indicated concentrations and time period, the media was removed and the cells were washed with PBS and lysed in 100 μl ice-cold complete lysis buffer containing 50 mM Tris-HCl pH 7.4, 1 mM EGTA, 10 mM 2-glycerophosphate, 50 mM sodium fluoride, 5 mM sodium pyrophosphate, 270 mM sucrose, supplemented with 1 μg/ml microcystin-LR, 1 mM sodium orthovanadate, complete EDTA-free protease inhibitor cocktail (Roche) and 1% (v/v) Triton X-100. The cells were immediately placed on ice and were scraped and collected into 1.5 ml Eppendorf tubes. Cell lysates were incubated on ice for 10 minutes prior to centrifugation at 15,000 g at 4° C. for 15 minutes. The cell pellet was discarded, and supernatant was collected for analysis by quantitative immunoblotting. For long term storage, the supernatant was flash frozen and stored at −80° C. Protein concentrations of cell lysates were determined using the Bradford assay.
Cell lysates containing a quarter of a volume of 4× NuPAGE LDS sample buffer (NP0007) supplemented with 5% β-mercaptoethanol, were heated at 95° C. for 5 minutes. […]

## CNc1nc(Nc2ccc(C(=O)N3CCN(CCOCCOCCOc4cccc(C(=O)c5csc(C6CCCN6C(=O)[C@@H](NC(=O)[C@H](C)NC)C6CCCCC6)n5)c4)CC3)cc2OC)ncc1Cl (stereo partly drawn) [SD113, (S)—N—((S)-2-((S)-2-(4-(3-(2-(2-(2-(4-(4-((5-chloro-4-(methylamino)pyrimidin-2-yl)amino)-3-methoxybenzoyl)piperazin-1-yl)ethoxy)ethoxy)ethoxy)benzoyl)thiazol-2-yl)pyrrolidin-1-yl)-1-cyclohexyl-2-oxoethyl)-2-(methylamino)propenamide]
[1]; 1 μM/4 h treatment
  inhibition at 1 µM: 30 to 95%
[1]; 1 μM/24 h treatment
  inhibition at 1 µM: 30 to 100%
[2]; 33 nM/4 h treatment
  inhibition at 0.033 µM: 0 to 60%
[2]; 33 nM/24 h treatment
  inhibition at 0.033 µM: 0 to 70%
[3]; 33 nM/4 h treatment
  inhibition at 0.033 µM: 0 to 25%
[3]; 33 nM/24 h treatment
  inhibition at 0.033 µM: 10 to 40%
[3]; 1 μM/4 h treatment
  inhibition at 1 µM: 18 to 90%
[3]; 1 μM/24 h treatment
  inhibition at 1 µM: 30 to 90%

## CNc1nc(Nc2ccc(C(=O)N3CCN(CCCOc4cccc(C(=O)c5csc(C6CCCN6C(=O)[C@@H](NC(=O)[C@H](C)NC)C6CCCCC6)n5)c4)CC3)cc2OC)ncc1Cl (stereo partly drawn) [SD114, (S)—N—((S)-2-((S)-2-(4-(3-(3-(4-(4-((5-chloro-4-(methylamino)pyrimidin-2-yl)amino)-3-methoxybenzoyl)piperazin-1-yl)propoxy)benzoyl)thiazol-2-yl)pyrrolidin-1-yl)-1-cyclohexyl-2-oxoethyl)-2-(methylamino)propenamide]
[1]; 1 μM/4 h treatment
  inhibition at 1 µM: 30 to 95%
[1]; 1 μM/24 h treatment
  inhibition at 1 µM: 30 to 100%
[2]; 33 nM/4 h treatment
  inhibition at 0.033 µM: 0 to 60%
[2]; 33 nM/24 h treatment
  inhibition at 0.033 µM: 0 to 70%
[3]; 33 nM/4 h treatment
  inhibition at 0.033 µM: 0 to 25%
[3]; 33 nM/24 h treatment
  inhibition at 0.033 µM: 10 to 40%
[3]; 1 μM/4 h treatment
  inhibition at 1 µM: 18 to 90%
[3]; 1 μM/24 h treatment
  inhibition at 1 µM: 30 to 90%

## CNc1nc(Nc2ccc(C(=O)N3CCN(Cc4ccc(CSC(C)(C)[C@H](NC(=O)C5(F)CC5)C(=O)N5C[C@H](O)C[C@H]5C(=O)NCc5ccc(-c6scnc6C)cc5)cc4)CC3)cc2OC)ncc1C(F)(F)F [XL01070B, (2S,4R)-1-((R)-2-(1-fluorocyclopropane-1-carboxamido)-3-((4-((4-(3-methoxy-4-((4-(methylamino)-5-(trifluoromethyl)pyrimidin-2-yl)amino)benzoyl)piperazin-1-yl)methyl)benzyl)thio)-3-methylbutanoyl)-4-hydroxy-N-(4-(4-methylthiazol-5-yl)benzyl)pyrrolidine-2-carboxamide]
[1]; 1 μM/4 h treatment
  inhibition at 1 µM: 20 to 100%
[1]; 1 μM/24 h treatment
  inhibition at 1 µM: 10 to 100%
[2]; 33 nM/4 h treatment
  inhibition at 0.033 µM: 0 to 70%
[2]; 33 nM/24 h treatment
  inhibition at 0.033 µM: 0 to 90%
[3]; 33 nM/4 h treatment
  inhibition at 0.033 µM: 0 to 40%
[3]; 33 nM/24 h treatment
  inhibition at 0.033 µM: 0 to 60%
[3]; 1 μM/4 h treatment
  inhibition at 1 µM: 10 to 95%
[3]; 1 μM/24 h treatment
  inhibition at 1 µM: 30 to 100%

## CNc1nc(Nc2ccc(C(=O)N3CCN(CCCSC(C)(C)[C@H](NC(=O)C4(F)CC4)C(=O)N4C[C@H](O)C[C@H]4C(=O)NCc4ccc(-c5scnc5C)cc4)CC3)cc2OC)ncc1C(F)(F)F [XL01072, (2S,4R)-1-((R)-2-(1-fluorocyclopropane-1-carboxamido)-3-((3-(4-(3-methoxy-4-((4-(methylamino)-5-(trifluoromethyl)pyrimidin-2-yl)amino)benzoyl)piperazin-1-yl)propyl)thio)-3-methylbutanoyl)-4-hydroxy-N-(4-(4-methylthiazol-5-yl)benzyl)pyrrolidine-2-carboxamide]
[1]; 1 μM/4 h treatment
  inhibition at 1 µM: 20 to 100%
[1]; 1 μM/24 h treatment
  inhibition at 1 µM: 10 to 100%
[2]; 33 nM/4 h treatment
  inhibition at 0.033 µM: 0 to 70%
[2]; 33 nM/24 h treatment
  inhibition at 0.033 µM: 0 to 90%
[3]; 33 nM/4 h treatment
  inhibition at 0.033 µM: 0 to 40%
[3]; 33 nM/24 h treatment
  inhibition at 0.033 µM: 0 to 60%
[3]; 1 μM/4 h treatment
  inhibition at 1 µM: 10 to 95%
[3]; 1 μM/24 h treatment
  inhibition at 1 µM: 30 to 100%

## CNc1nc(Nc2ccc(C(=O)N3CCN(CC#CCSC(C)(C)[C@H](NC(=O)C4(F)CC4)C(=O)N4C[C@H](O)C[C@H]4C(=O)NCc4ccc(-c5scnc5C)cc4)CC3)cc2OC)ncc1Cl [XL01076, (2S,4R)-1-((R)-3-((4-(4-(4-((5-chloro-4-(methylamino)pyrimidin-2-yl)amino)-3 methoxybenzoyl)piperazin-1-yl)but-2-yn-1-yl)thio)-2-(1-fluorocyclopropane-1-carboxamido)-3-methylbutanoyl)-4-hydroxy-N-(4-(4-methylthiazol-5-yl)benzyl)pyrrolidine-2-carboxamide]
[1]; 1 μM/4 h treatment
  inhibition at 1 µM: 20 to 100%
[1]; 1 μM/24 h treatment
  inhibition at 1 µM: 10 to 100%
[2]; 33 nM/4 h treatment
  inhibition at 0.033 µM: 0 to 70%
[2]; 33 nM/24 h treatment
  inhibition at 0.033 µM: 0 to 90%
[3]; 33 nM/4 h treatment
  inhibition at 0.033 µM: 0 to 40%
[3]; 33 nM/24 h treatment
  inhibition at 0.033 µM: 0 to 60%
[3]; 1 μM/4 h treatment
  inhibition at 1 µM: 10 to 95%
[3]; 1 μM/24 h treatment
  inhibition at 1 µM: 30 to 100%

## CNc1nc(Nc2ccc(C(=O)N3CCN(CCOCCOCCSC(C)(C)[C@@H](NC(=O)C4(F)CC4)C(=O)N4C[C@H](O)C[C@H]4C(=O)NCc4ccc(-c5scnc5C)cc4)CC3)cc2OC)ncc1C(F)(F)F [XL01078B, (2S,4R)-1-((S)-2-(1-fluorocyclopropane-1-carboxamido)-3-((2-(2-(2-(4-(3-methoxy-4-((4-(methylamino)-5-(trifluoromethyl)pyrimidin-2-yl)amino)benzoyl)piperazin-1-yl)ethoxy)ethoxy)ethyl)thio)-3-methylbutanoyl)-4-hydroxy-N-(4-(4-methylthiazol-5-yl)benzyl)pyrrolidine-2-carboxamide]
[1]; 1 μM/4 h treatment
  inhibition at 1 µM: 20 to 100%
[1]; 1 μM/24 h treatment
  inhibition at 1 µM: 10 to 100%
[2]; 33 nM/4 h treatment
  inhibition at 0.033 µM: 0 to 70%
[2]; 33 nM/24 h treatment
  inhibition at 0.033 µM: 0 to 90%
[3]; 33 nM/4 h treatment
  inhibition at 0.033 µM: 0 to 40%
[3]; 33 nM/24 h treatment
  inhibition at 0.033 µM: 0 to 60%
[3]; 1 μM/4 h treatment
  inhibition at 1 µM: 10 to 95%
[3]; 1 μM/24 h treatment
  inhibition at 1 µM: 30 to 100%
